In patent publication US20170258781A1, “ATRIAL SPECIFIC ANTIARRHYTHMICS FOR USE IN TREATING OR PREVENTING ATRIAL FIBRILLATION” (Tufts Medical Center, Inc., priority 2014, published 2017):

Tests used:
[1] = target: T1, IKACh (Kir3.1 and Kir3.4 protein channels) (Homo sapiens, UniProt P48544+P48549); assay: Patch clamp block of IKACh current in transfected HEK 293 cells; format: cell-based; details: for percentage block of IKACh current (outward component): 1 μM drug, HEK 293 cells transfected with Kir3.1/Kir3.4, barium sensitive current, 5 minute superfusion; for percentage block of IKACh current (FIG. 5, Compound A experiments): same manner and cell lines, concentration not given
T1 construct: expressed in transfected cells; host or cells: HEK 293 (human embryonic kidney cells)
T1 sequence (P48549 1-501): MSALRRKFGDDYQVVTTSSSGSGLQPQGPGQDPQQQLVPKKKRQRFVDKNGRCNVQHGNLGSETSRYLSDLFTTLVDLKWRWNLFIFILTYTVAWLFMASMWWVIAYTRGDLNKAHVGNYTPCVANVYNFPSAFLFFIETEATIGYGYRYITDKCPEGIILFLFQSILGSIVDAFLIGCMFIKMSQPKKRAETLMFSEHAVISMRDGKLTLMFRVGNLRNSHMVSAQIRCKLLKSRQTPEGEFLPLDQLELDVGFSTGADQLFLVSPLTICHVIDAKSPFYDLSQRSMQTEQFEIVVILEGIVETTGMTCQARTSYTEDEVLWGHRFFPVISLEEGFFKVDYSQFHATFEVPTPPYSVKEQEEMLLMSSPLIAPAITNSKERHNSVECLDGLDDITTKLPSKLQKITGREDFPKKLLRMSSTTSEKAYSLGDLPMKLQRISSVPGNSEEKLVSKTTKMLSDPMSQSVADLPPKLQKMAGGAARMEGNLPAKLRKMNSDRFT
T1 sequence (P48544 1-419): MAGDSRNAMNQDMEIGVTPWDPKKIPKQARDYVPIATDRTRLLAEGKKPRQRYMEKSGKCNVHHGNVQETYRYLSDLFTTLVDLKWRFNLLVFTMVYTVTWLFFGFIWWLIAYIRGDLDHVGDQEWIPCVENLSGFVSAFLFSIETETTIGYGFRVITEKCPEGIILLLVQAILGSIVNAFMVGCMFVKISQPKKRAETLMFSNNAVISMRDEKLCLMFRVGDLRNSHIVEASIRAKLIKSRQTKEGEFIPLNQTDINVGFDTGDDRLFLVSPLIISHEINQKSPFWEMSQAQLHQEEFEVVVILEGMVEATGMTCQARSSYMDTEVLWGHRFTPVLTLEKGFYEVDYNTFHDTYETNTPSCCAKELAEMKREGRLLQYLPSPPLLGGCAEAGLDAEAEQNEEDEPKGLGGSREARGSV
Description: FIG. 1: In patch clamp experiments, IKACh was measured in human embryonic kidney cells (HEK 293) transfected with IKACh.
The boxed area is the physiologically important outward component of the IKACh current. A magnification is shown. […] The traces are the barium sensitive currents.

[2] = target: IKr (hERG protein channel) (Homo sapiens, UniProt Q12809); details: 5 min
Sequence of IKr (hERG protein channel) (Q12809 whole entry): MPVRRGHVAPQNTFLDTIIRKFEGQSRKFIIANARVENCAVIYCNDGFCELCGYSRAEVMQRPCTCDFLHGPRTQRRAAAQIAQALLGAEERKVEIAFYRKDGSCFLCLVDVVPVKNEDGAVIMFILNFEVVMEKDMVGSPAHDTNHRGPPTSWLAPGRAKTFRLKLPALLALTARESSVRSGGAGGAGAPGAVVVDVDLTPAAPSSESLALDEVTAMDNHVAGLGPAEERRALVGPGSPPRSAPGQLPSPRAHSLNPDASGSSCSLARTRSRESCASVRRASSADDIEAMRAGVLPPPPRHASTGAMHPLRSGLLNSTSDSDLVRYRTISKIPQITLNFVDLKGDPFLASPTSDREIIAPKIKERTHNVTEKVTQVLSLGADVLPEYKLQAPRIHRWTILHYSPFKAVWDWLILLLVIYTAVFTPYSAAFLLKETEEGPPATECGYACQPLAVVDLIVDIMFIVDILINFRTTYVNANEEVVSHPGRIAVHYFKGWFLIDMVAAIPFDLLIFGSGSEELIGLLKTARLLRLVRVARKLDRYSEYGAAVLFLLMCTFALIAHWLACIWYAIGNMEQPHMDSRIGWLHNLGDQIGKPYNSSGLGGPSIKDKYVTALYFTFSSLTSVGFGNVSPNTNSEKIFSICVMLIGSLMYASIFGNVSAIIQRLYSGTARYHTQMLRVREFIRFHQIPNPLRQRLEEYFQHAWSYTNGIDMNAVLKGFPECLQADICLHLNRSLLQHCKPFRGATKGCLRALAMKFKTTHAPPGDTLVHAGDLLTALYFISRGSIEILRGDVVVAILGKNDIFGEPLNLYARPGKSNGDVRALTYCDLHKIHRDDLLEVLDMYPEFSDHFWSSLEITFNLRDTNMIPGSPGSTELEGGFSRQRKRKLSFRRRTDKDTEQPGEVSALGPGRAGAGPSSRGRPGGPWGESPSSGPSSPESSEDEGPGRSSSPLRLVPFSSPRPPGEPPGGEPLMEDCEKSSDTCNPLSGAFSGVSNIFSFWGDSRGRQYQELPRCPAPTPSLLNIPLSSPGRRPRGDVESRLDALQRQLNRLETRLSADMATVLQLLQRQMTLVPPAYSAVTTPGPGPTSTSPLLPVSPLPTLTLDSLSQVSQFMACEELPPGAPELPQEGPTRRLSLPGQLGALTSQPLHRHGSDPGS
Description: FIG. 2: IKr current was measured in Chinese hamster ovary cells (CHO) expressing the current.
The arrow denotes the tail current. Tail current is elicited by 3 second step voltage drop from +20 mV to −40 mV. The gray trace is the remaining current after total current block with E4031.
We used the conventional patch clamp method and human embryonic kidney cells transfected with Kir3.1 and Kir3.4 protein channels responsible for IKACh, or Chinese hamster ovary cells transfected with the hERG protein channel responsible for IKr. […] In order to elicit IKACh, the cells were subjected to a voltage protocol consisting of a 2 second ramp from −130 mV to 50 mV, from a holding potential of −40 mV. IKr tail current was elicited by a 3 second voltage drop step from 20 mV to −40 mV. The drugs were superfused over a 5 minute period into the chambers that hold the cells.

[3] = Compound A vs racemic chloroquine

Row | Compound | percentage block of IKACh current (outward component) [1] | percentage block of IKACh current (FIG. 5, Compound A experiments) [1, 3] | further results
1 | CCN(CC)CCC[C@@H](C)Nc1ccnc2cc(Cl)ccc12 [(R)-chloroquine, reference compound] | less than 13% |  | percentage block of IKACh current (outward component) ([1]; listed as distomer (R)): 14%±9
2 | CCN(CC)CCC[C@H](C)Nc1ccnc2cc(Cl)ccc12 [(S)-chloroquine] | more than 83% |  | percentage block of IKACh current (outward component) ([1]; listed as eutomer (S)): 83%±2
3 | CCN(CC)CCC[C@H](Cc1ccccc1)Nc1ccnc2cc(Cl)ccc12 [Compound A] |  | 110%±2.5 | percentage block of IKr current (FIG. 5, Compound A experiments) [2]: 75%±5.7; IKACh block relative to chloroquine, in words [1, 3]: significantly better blocker of IKACh
4 | chloroquine [racemic chloroquine, reference compound] |  | 52%±11 | 
